This is an account of results in patent US7858644B2, “EP4 receptor antagonists” (Asterand UK Limited, priority 2003, dated 2010).

One assay concerns the target T1, human EP4 receptor (Homo sapiens, UniProt P35408).
T1 construct: expressed in transfected cells
The experiment in a line: Binding ability to human EP4 receptor ([3H]PGE2 displacement). To be noted: read-out: pKi EP4 (converted).

A further assay deals with T2, human EP3 receptor (Homo sapiens, UniProt P43115).
T2 construct: expressed in transfected cells
T2 sequence (P43115 1-390): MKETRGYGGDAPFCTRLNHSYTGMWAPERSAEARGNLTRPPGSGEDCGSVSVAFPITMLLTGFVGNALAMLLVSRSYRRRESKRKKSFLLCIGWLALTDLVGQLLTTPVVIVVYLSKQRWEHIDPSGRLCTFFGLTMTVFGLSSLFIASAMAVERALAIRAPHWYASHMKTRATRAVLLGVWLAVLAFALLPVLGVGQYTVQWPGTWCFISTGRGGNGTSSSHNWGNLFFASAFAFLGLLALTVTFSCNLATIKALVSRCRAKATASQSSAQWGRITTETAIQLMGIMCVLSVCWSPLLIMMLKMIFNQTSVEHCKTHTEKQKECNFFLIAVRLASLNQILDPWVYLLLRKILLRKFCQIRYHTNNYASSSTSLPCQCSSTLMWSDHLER
The experiment in a line: Binding ability to human EP3 receptor ([3H]PGE2 displacement). To be noted: membranes from cells stably transfected with human EP receptor cDNA; [3H]PGE2 2.5 nM; Cheng-Prusoff from IC50; read-out: pKi EP3 (converted). Put shortly: (§1)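 Membranes from cells stably transfected with human EP receptor cDNA were incubated to equilibrium with [3H]PGE2 and compound (0.1 to 10 000 nM). Non-specific binding was defined with 10 uM PGE2; bound radioligand was separated by vacuum filtration and counted by scintillation.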

A further assay concerns the target T3, human EP1 receptor (Homo sapiens, UniProt P34995).
T3 construct: expressed in transfected cells
T3 sequence (P34995 1-402): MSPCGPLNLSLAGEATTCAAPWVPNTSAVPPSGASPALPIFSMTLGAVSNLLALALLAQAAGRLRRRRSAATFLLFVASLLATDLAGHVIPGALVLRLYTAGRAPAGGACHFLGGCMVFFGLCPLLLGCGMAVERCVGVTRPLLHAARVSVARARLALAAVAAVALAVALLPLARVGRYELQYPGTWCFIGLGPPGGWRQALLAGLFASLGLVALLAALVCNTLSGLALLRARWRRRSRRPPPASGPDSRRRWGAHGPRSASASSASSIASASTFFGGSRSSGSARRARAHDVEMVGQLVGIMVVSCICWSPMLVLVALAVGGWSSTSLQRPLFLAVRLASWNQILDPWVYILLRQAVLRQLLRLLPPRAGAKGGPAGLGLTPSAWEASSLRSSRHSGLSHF
The experiment in a line: Binding ability to human EP1 receptor ([3H]PGE2 displacement). As to conditions: membranes from cells stably transfected with human EP receptor cDNA; [3H]PGE2 3.6 nM; Cheng-Prusoff from IC50; read-out: pKi EP1 (converted). How it is done: Membranes were prepared from cells stably transfected with human EP receptor cDNA. In brief, cells were cultured to confluency, scraped from culture flasks, and centrifuged (800 g, 8 minutes, 4° C.). Cells were twice washed in ice cold homogenisation buffer containing 10 mMTris-HCl, 1 mM EDTA. 2Na, 250 mM sucrose, 1 mM PMSF, 0.3 mM indomethacin, pH 7.4, homogenised and re-centrifuged as before. The supernatant was stored on ice and pellets re-homogenised and re-spun. Supernatants were pooled and centrifuged at 40000 g, 10 minutes, 4° C. Resultant membrane pellets were stored at −80° C. until use.
For assay, membranes expressing human EP4, EP3, EP2 or EP1 receptors were incubated in Millipore (MHVBN45) plates containing assay buffer, radiolabelled [^3H]PGE2 and 0.1 to 10 000 nM concentrations of compounds. Incubations were performed at suitable temperatures and for suitable times to allow equilibrium to be reached. Non-specific binding was determined in the presence of 10 uM PGE2. Bound and free radiolabel was separated by vacuum manifold filtration using appropriate wash buffers, and bound radiolabel was determined by scintillation counting. Constituents of each of the buffers are included in table 1 below.
This approach follows that set out in Kenakin, T. P., Pharmacologic analysis of drug receptor interaction. Raven Press, New York, 2nd edition.

In another assay the target is T4, human EP2 receptor (Homo sapiens, UniProt P43116).
T4 construct: expressed in transfected cells
Nature of the assay: Binding ability to human EP2 receptor ([3H]PGE2 displacement). As to conditions: read-out: pKi EP2 (converted). The method, boiled down: as §1

Bounds are passed on as bounds.

T4 sequence (P43116 whole entry): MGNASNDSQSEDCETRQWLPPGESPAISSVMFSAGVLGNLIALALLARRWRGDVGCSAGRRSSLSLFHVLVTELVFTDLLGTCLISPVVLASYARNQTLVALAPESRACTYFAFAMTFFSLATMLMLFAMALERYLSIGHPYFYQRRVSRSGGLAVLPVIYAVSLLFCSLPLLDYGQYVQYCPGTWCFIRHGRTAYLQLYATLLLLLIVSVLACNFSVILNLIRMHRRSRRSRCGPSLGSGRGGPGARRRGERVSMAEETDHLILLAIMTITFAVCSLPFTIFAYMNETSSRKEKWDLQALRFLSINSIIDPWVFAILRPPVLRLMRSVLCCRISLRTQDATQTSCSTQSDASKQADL
T1 sequence (P35408 whole entry): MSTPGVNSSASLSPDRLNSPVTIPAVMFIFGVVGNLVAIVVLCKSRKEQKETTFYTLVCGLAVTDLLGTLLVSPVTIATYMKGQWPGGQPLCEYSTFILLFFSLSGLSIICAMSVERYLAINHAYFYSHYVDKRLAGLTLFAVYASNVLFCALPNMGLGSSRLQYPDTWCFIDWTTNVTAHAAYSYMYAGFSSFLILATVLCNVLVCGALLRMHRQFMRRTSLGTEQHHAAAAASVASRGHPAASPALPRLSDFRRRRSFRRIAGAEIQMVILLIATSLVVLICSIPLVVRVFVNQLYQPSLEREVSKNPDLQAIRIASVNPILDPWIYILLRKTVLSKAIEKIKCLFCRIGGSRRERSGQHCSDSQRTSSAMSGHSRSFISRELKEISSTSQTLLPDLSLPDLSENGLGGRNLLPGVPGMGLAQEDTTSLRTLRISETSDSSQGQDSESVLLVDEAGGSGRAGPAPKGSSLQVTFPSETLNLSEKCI

Turning to `COc1ccc(-c2ccc(NC(=O)c3cc(C(=O)O)oc3C)cc2)cc1` [Compound 24, 4-(4′-Methoxy-biphenyl-4-ylcarbamoyl)-5-methyl-furan-2-carboxylic acid], the Ki was less than 0.316 µM on human EP4 receptor, more than 10 µM at human EP3 receptor, more than 10 µM at human EP1 receptor and more than 10 µM on human EP2 receptor.
With `COc1ccc(-c2ccc(OCc3cc(S(=O)(=O)NC(=O)c4ccccc4)oc3C)cc2)cc1` [Compound 49, 4-(4′-Methoxy-biphenyl-4-yloxymethyl)-5-methyl-furan-2-sulfonic acid benzoylamide], the Ki on human EP4 receptor was less than 0.01 µM; at human EP3 receptor, more than 10 µM; at human EP1 receptor it was more than 10 µM; on human EP2 receptor, more than 10 µM.
Consider `Cc1ccccc1S(=O)(=O)NC(=O)c1cc(COc2ccc(-c3ccccc3)cc2)c(C)o1` [Compound 60, N-[4-(Biphenyl-4-yloxymethyl)-5-methyl-furan-2-carbonyl]-2-methyl-benzenesulphonamide], for which the Ki at human EP4 receptor is less than 0.01 µM; at human EP3 receptor, more than 10 µM; at human EP1 receptor, more than 10 µM; at human EP2 receptor, more than 10 µM.
With `Cc1oc(C(=O)O)cc1CNc1ccc(-c2ccc(OC(F)F)cc2)cc1` [Compound 171, 4-(4′-Difluoromethoxy-biphenyl-4-ylaminomethyl)-5-methyl-furan-2-carboxylic acid], the results for the Ki at human EP4 receptor, at human EP3 receptor and on human EP2 receptor were less than 0.316 µM, more than 10 µM and more than 10 µM, respectively.
With `Cc1oc(C(=O)NS(=O)(=O)c2ccccc2)cc1CNc1ccc(-c2ccc(OC(F)F)cc2)cc1` [Compound 172, N-{4-[(4′-Difluoromethoxy-biphenyl-4-ylamino)-methyl]-5-methyl-furan-2-carbonyl}-benzenesulphonamide], the Ki on human EP4 receptor is less than 0.01 µM; on human EP3 receptor, more than 10 µM; at human EP2 receptor it was more than 10 µM.
`Cc1noc(C)c1S(=O)(=O)NC(=O)c1cc(CNc2ccc(-c3ccc(OC(F)F)cc3)cc2)c(C)o1` [Compound 174, 3,5-Dimethyl-isoxazole-4-sulphonic acid {4-[(4′-difluoromethoxy-biphenyl-4-ylamino)-methyl]-5-methyl-furan-2-carbonyl}-amide]: the Ki is less than 0.01 µM on human EP4 receptor, more than 10 µM on human EP3 receptor and more than 10 µM at human EP2 receptor.
Take `Cc1oc(C(=O)O)cc1CN(C)c1ccc(-c2ccc(OC(F)F)cc2)cc1` [Compound 176, 4-{[(4′-Difluoromethoxy-biphenyl-4-yl)-methyl-amino]-methyl}-5-methyl-furan-2-carboxylic acid]: the Ki at human EP4 receptor was less than 0.316 µM; on human EP3 receptor, more than 10 µM; on human EP2 receptor, more than 10 µM.
In the case of `Cc1ccccc1S(=O)(=O)NC(=O)c1cc(CN(C)c2ccc(-c3ccc(OC(F)F)cc3)cc2)c(C)o1` [Compound 177, N-(4-{[(4′-Difluoromethoxy-biphenyl-4-yl)-methyl-amino]-methyl}-5-methyl-furan-2-carbonyl)-2-methyl-benzenesulfonamide], the values for the Ki at human EP4 receptor, on human EP3 receptor and on human EP2 receptor were less than 0.0316 µM, more than 10 µM and more than 10 µM, respectively.
